Results as given in patent publication US20180200257A1, “METHODS FOR THE TREATMENT OF INFLAMMATORY DISORDERS” (Galapagos NV, priority 2015, published 2018).

System: Subjects With Active Crohn's Disease With Evidence of Mucosal Ulceration
Experiment: Study 3 - Crohn's Disease Activity Index (CDAI) scores
Format: in vivo, human
Description: Double-Blind, Randomized, Placebo-Controlled, Multi-Centre Study to Investigate the Efficacy and Safety of Compound 1 in Subjects With Active Crohn's Disease With Evidence of Mucosal Ulceration. This is a double-blind, randomized, placebo-controlled, multi-centre Phase 2 study to investigate the efficacy and safety of Compound 1 administered once daily for the treatment of active CD with evidence of mucosal ulceration. The pharmacokinetics (including a PK substudy) and pharmacodynamics of Compound 1 and metabolite in CD will also be characterised. A total of 180 eligible subjects will be randomized to receive Compound 1 or placebo in addition to their stable background treatment (eg, corticosteroids, aminosalicylates, or CD-related antibiotics). The study will consist of 2 parts, with total treatment duration of 20 weeks. Randomization in Part 1 will be stratified according the subject's previous anti-TNF exposure/response, CRP level at Screening, and oral corticosteroid use at visit Day −1. After the first 10 weeks of treatment in Part 1, patients will be re-randomized for Part 2 as shown in the diagram below and will be stratified according to the subject's clinical response, previous anti-TNF exposure/response, and oral corticosteroid use at visit Day -1. [table] The Crohn's disease activity index (CDAI) is a numerical calculation derived from the sum of products from a list of 8 items (see Table CXXVI below), and multiplied by weighting factors for each item to define the severity of “disease activity” in patients with Crohn's disease (CD)[1]. Essentially, the CDAI represents a numerical estimation of a physician's interpretation of patient symptoms. Index values of 150 and below are associated with quiescent or non-active disease (i.e. “remission”). Values over 150 are indicative of active disease, and over 450, extremely severe disease.% In the present study, clinical remission is defined as a CDAI score of <150 points, and a clinical response is defined as a decrease in CDAI score of at least 100 points.

[1] = 200 mg, LOCF, baseline corticosteroid use: with steroids
[2] = 200 mg, LOCF, baseline corticosteroid use: without steroids
[3] = 200 mg, week 10, Anti-TNF Naïve
[4] = 200 mg, week 10, Anti-TNF experienced non-responders
[5] = 200 mg, week 10, LOCF, screening CRP ≤ 10 ml/L
[6] = 200 mg, week 10, LOCF, screening CRP ≥ 10 mg/L
[7] = initial 200 mg non-responders, continued 200 mg, week 10
[8] = initial 200 mg non-responders, continued 200 mg, week 20
[9] = initial 200 mg non-responders, to placebo, week 10
[10] = initial 200 mg non-responders, to placebo, week 20
[11] = initial 200 mg responders, continued 200 mg, week 10
[12] = initial 200 mg responders, continued 200 mg, week 20
[13] = initial 200 mg responders, to 100 mg, week 10
[14] = initial 200 mg responders, to 100 mg, week 20
[15] = initial 200 mg responders, to placebo, week 10
[16] = initial 200 mg responders, to placebo, week 20
[17] = initial placebo non-responders switching to 100 mg at week 10, week 20

O=C(Nc1nc2cccc(-c3ccc(CN4CCS(=O)(=O)CC4)cc3)n2n1)C1CC1 [Compound 1, cyclopropanecarboxylic acid {5-[4-(1,1-dioxo-thiomorpholin-4-ylmethyl)-phenyl]-[1,2,4]triazolo[1,5-a]pyridin-2-yl}-amide]
70 point clinical response (CDAI improvement ≥ 70 points) [1]: 70% | 100 point clinical response (CDAI improvement ≥ 100 points) [1]: 60% | Clinical Remission (CDAI < 150) [1]: 52% | 70 point clinical response (CDAI improvement ≥ 70 points) [2]: 72% | 100 point clinical response (CDAI improvement ≥ 100 points) [2]: 71% | Clinical Remission (CDAI < 150) [2]: 48% | 70 point clinical response (CDAI improvement ≥ 70 points) [3]: 81% | 100 point clinical response (CDAI improvement ≥ 100 points), LOCF [3]: 74% | Clinical Remission (CDAI < 150), LOCF [3]: 65% | 70 point clinical response (CDAI improvement ≥ 70 points) [4]: 63% | 100 point clinical response (CDAI improvement ≥ 100 points), LOCF [4]: 59% | Clinical Remission (CDAI < 150), LOCF [4]: 38% | 70 point clinical response (CDAI improvement ≥ 70 points) [5]: 73% | 100 point clinical response (CDAI improvement ≥ 100 points) [5]: 66% | Clinical Remission (CDAI < 150) [5]: 46% | 70 point clinical response (CDAI improvement ≥ 70 points) [6]: 69% | 100 point clinical response (CDAI improvement ≥ 100 points) [6]: 65% | Clinical Remission (CDAI < 150) [6]: 56% | 100 point clinical response (CDAI improvement ≥ 100 points), LOCF (200 mg, week 10, overall): 66% | 100 point clinical response (CDAI improvement ≥ 100 points), NRI (200 mg, week 10, overall): 60% | Clinical Remission (CDAI < 150), LOCF (200 mg, week 10, overall): 50% | Clinical Remission (CDAI <150), NRI (200 mg, week 10, overall): 48% | Clinical Remission (CDAI < 150), LOCF [7]: 16% | Clinical Remission (CDAI <150), NRI [7]: 16% | Clinical Remission (CDAI <150), OC [7]: 16% | Clinical Response (CDAI ≥70), LOCF [7]: 44% | Clinical Response (CDAI ≥70), NRI [7]: 44% | Clinical Response (CDAI ≥70), OC [7]: 44% | Clinical Response (CDAI ≥100), LOCF [7]: 32% | Clinical Response (CDAI ≥100), NRI [7]: 32% | Clinical Response (CDAI ≥ 100), OC [7]: 32% | Clinical Remission (CDAI < 150), LOCF [8]: 28% | Clinical Remission (CDAI <150), NRI [8]: 24% | Clinical Remission (CDAI <150), OC [8]: 30% | Clinical Response (CDAI ≥70), LOCF [8]: 44% | Clinical Response (CDAI ≥70), NRI [8]: 40% | Clinical Response (CDAI ≥70), OC [8]: 50% | Clinical Response (CDAI ≥100), LOCF [8]: 36% | Clinical Response (CDAI ≥100), NRI [8]: 32% | Clinical Response (CDAI ≥ 100), OC [8]: 40% | Clinical Remission (CDAI < 150), LOCF [9]: 0% | Clinical Remission (CDAI <150), NRI [9]: 0% | Clinical Remission (CDAI <150), OC [9]: 0% | Clinical Response (CDAI ≥70), LOCF [9]: 22% | Clinical Response (CDAI ≥70), NRI [9]: 11% | Clinical Response (CDAI ≥70), OC [9]: 13% | Clinical Response (CDAI ≥100), LOCF [9]: 22% | Clinical Response (CDAI ≥100), NRI [9]: 11% | Clinical Response (CDAI ≥ 100), OC [9]: 13% | Clinical Remission (CDAI < 150), LOCF [10]: 33% | Clinical Remission (CDAI <150), NRI [10]: 33% | Clinical Remission (CDAI <150), OC [10]: 38% | Clinical Response (CDAI ≥70), LOCF [10]: 44% | Clinical Response (CDAI ≥70), NRI [10]: 44% | Clinical Response (CDAI ≥70), OC [10]: 50% | Clinical Response (CDAI ≥100), LOCF [10]: 33% | Clinical Response (CDAI ≥100), NRI [10]: 33% | Clinical Response (CDAI ≥ 100), OC [10]: 38% | Clinical Remission (CDAI < 150), LOCF [11]: 67% | Clinical Remission (CDAI <150), NRI [11]: 63% | Clinical Remission (CDAI <150), OC [11]: 70% | Clinical Response (CDAI decrease ≥100 points), OC [11]: 93% | Clinical Response (CDAI ≥70), LOCF [11]: 100% | Clinical Response (CDAI ≥70), NRI [11]: 90% | Clinical Response (CDAI ≥70), OC [11]: 100% | Clinical Response (CDAI ≥100), LOCF [11]: 93% | Clinical Response (CDAI ≥100), NRI [11]: 83% | Clinical Remission (CDAI < 150), LOCF [12]: 57% | Clinical Remission (CDAI <150), NRI [12]: 50% | Clinical Remission (CDAI <150), OC [12]: 58% | Clinical Response (CDAI decrease ≥100 points), OC [12]: 77% | Clinical Response (CDAI ≥70), LOCF [12]: 80% | Clinical Response (CDAI ≥70), NRI [12]: 70% | Clinical Response (CDAI ≥70), OC [12]: 81% | Clinical Response (CDAI ≥100), LOCF [12]: 77% | Clinical Response (CDAI ≥100), NRI [12]: 67% | Clinical Remission (CDAI < 150), LOCF [13]: 87% | Clinical Remission (CDAI <150), NRI [13]: 87% | Clinical Remission (CDAI <150), OC [13]: 87% | Clinical Response (CDAI decrease ≥100 points), OC [13]: 97% | Clinical Response (CDAI ≥70), LOCF [13]: 100% | Clinical Response (CDAI ≥70), NRI [13]: 100% | Clinical Response (CDAI ≥70), OC [13]: 100% | Clinical Response (CDAI ≥100), LOCF [13]: 97% | Clinical Response (CDAI ≥100), NRI [13]: 97% | Clinical Remission (CDAI < 150), LOCF [14]: 63% | Clinical Remission (CDAI <150), NRI [14]: 60% | Clinical Remission (CDAI <150), OC [14]: 75% | Clinical Response (CDAI decrease ≥100 points), OC [14]: 92% | Clinical Response (CDAI ≥70), LOCF [14]: 83% | Clinical Response (CDAI ≥70), NRI [14]: 77% | Clinical Response (CDAI ≥70), OC [14]: 96% | Clinical Response (CDAI ≥100), LOCF [14]: 80% | Clinical Response (CDAI ≥100), NRI [14]: 73% | Clinical Remission (CDAI < 150), LOCF [15]: 79% | Clinical Remission (CDAI <150), NRI [15]: 71% | Clinical Remission (CDAI <150), OC [15]: 77% | Clinical Response (CDAI decrease ≥100 points), OC [15]: 92% | Clinical Response (CDAI ≥70), LOCF [15]: 100% | Clinical Response (CDAI ≥70), NRI [15]: 93% | Clinical Response (CDAI ≥70), OC [15]: 100% | Clinical Response (CDAI ≥100), LOCF [15]: 93% | Clinical Response (CDAI ≥100), NRI [15]: 86% | Clinical Remission (CDAI < 150), LOCF [16]: 79% | Clinical Remission (CDAI <150), NRI [16]: 71% | Clinical Remission (CDAI <150), OC [16]: 77% | Clinical Response (CDAI decrease ≥100 points), OC [16]: 85% | Clinical Response (CDAI ≥70), LOCF [16]: 93% | Clinical Response (CDAI ≥70), NRI [16]: 86% | Clinical Response (CDAI ≥70), OC [16]: 92% | Clinical Response (CDAI ≥100), LOCF [16]: 86% | Clinical Response (CDAI ≥100), NRI [16]: 79% | Clinical Remission (CDAI < 150), LOCF [17]: 32% | Clinical Remission (CDAI <150), NRI [17]: 32% | Clinical Remission (CDAI <150), OC [17]: 33% | Clinical Response (CDAI ≥70), LOCF [17]: 68% | Clinical Response (CDAI ≥70), NRI [17]: 68% | Clinical Response (CDAI ≥70), OC [17]: 71% | Clinical Response (CDAI ≥100), LOCF [17]: 59% | Clinical Response (CDAI ≥100), NRI [17]: 59% | Clinical Response (CDAI ≥ 100), OC [17]: 62%
